Laboratory results taken from patent US20100190755A1, “TETRACYCLINE COMPOUNDS FOR THE TREATMENT OF RHEUMATOID ARTHRITIS AND RELATED METHODS OF TREATMENT” (priority 2008, published 2010).
Values after ≈ are worked out from the molar mass of the structure shown.

Legend:
S. aureus RN450 = experiment: Antibacterial activity MIC, Gram+ (Table 9); format: cell-based; details: Staphylococcus aureus, CAMHB, 35° C., approximately 18 hr
Protocol: (§1) 2 mg of each compound is dissolved in 100 μl of DMSO. The solution is then added to cation-adjusted Mueller Hinton broth (CAMHB), which results in a final compound concentration of 200 μg per ml. The tetracycline compound solutions are diluted to 50 μL volumes, with a test compound concentration of 0.098 μg/ml. Optical density (OD) determinations are made from fresh log-phase broth cultures of the test strains. Dilutions are made to achieve a final cell density of 1×10^6 CFU/ml. At OD=1, cell densities for different genera should be approximately:
(§2) 50 μl of the cell suspensions are added to each well of microtiter plates. The final cell density should be approximately 5×10^5 CFU/ml. These plates are incubated at 35° C. in an ambient air incubator for approximately 18 hr. The plates are read with a microplate reader and are visually inspected when necessary. The MIC is defined as the lowest concentration of the tetracycline compound that inhibits growth.

E. coli 25922 = experiment: Antibacterial activity MIC, Gram- (Table 9); format: cell-based; details: Escherichia coli, CAMHB, 35° C., approximately 18 hr
Protocol: as §1, §2

[1] = test system: collagen-induced arthritis (CIA) in male DBA/1 mice; experiment: CIA model, Example 3 (cumulative scores vs untreated controls); format: in vivo; details: Mus musculus
Protocol: The CIA model data were acquired according to the following protocol: • 1. Male DBA/1 mice were anaesthetized by i.p. injection of ketamine/xylazine (1.25 mg/ml:0.25 mg/ml, 100 μl/mouse). • 2. Anaesthetized mice were immunized intradermally at the base of the tail with 0.1 or 0.2 ml of an emulsion composed of 100 or 200 μg bovine type II collagen in Complete Freund's Adjuvant (50 μl/spot x 2 or 4 spots). • 3. At day 21 after the immunization, mice received an intradermal boost of 100 μl of an emulsion composed of 100 μg bovine type II collagen in Incomplete Freund's Adjuvant (50 μl/spot x 2 spots) • 4. After onset of disease symptoms (usually 3-4 days after boost), tetracycline derivatives were administered daily into mice via intraperitoneal or oral routes for 8 to 15 days. Methotrexate (12 mg/kg/day) or dexmethasone (4 mg/kg/day) was used as a control for inflammation suppression. • 5. The disease severity was scored daily for 8-15 days after the appearance of the symptoms. Disease severity was graded as following: • a. Visual clinical score for the presence of inflammation in the fingers/toes of the forepaws and hindpaws: • 1. Erythema and mild swelling confined to the mid-foot (tarsals) or ankle joint • 2. Erythema and mild swelling extending from the ankle to the mid-foot • 3. Erythema and moderate swelling extending from the ankle to the metatarsal joints • 4. Erythema and severe swelling encompassing the ankle, foot, and digits. • b. Clinical swelling score for the presence of paw edema in the forepaws and hindpaws: • Paw thickness was measured daily by an engineering micrometer after isofluorane inhalation or ketamine/xylazine (1.25 mg/ml:0.25 mg/ml, 100 μl/mouse) i.p. injection.
Daily scores and paw swelling measurements for each treatment group of mice were added over the total observation period to obtain a cumulative score. Cumulative scores were compared between untreated controls and treated groups to determine tetracycline-induced inhibition.

Row | Structure (SMILES) | MIC (S. aureus RN450) [µg/mL] | MIC (E. coli 25922) [µg/mL] | inhibition in vivo at 25 mg/kg [1] [%] | inhibition in vivo at 12 mg/kg [1] [%] | inhibition in vivo at 6 mg/kg ([1]; Dose 6 mg/kg) [%]
1 | CCOC(=O)c1cc(N(C)C)c2c(c1O)C(=O)C1=C(O)[C@]3(O)C(=O)C(C(N)=O)=C(O)C[C@@H]3C[C@@H]1C2 [AA] | 2 (≈ 4.11 µM) | > 64 | 41 | – | –
2 | CN(C)c1cc(-c2cnoc2)c(O)c2c1C[C@H]1C[C@H]3CC(O)=C(C(N)=O)C(=O)[C@@]3(O)C(O)=C1C2=O [AB] | 0.5 (≈ 1.04 µM) | > 64 | 38 | – | –
3 | CN(C)c1cc(-c2ccn[nH]2)c(O)c2c1C[C@H]1C[C@H]3CC(O)=C(C(N)=O)C(=O)[C@@]3(O)C(O)=C1C2=O [AC] | 2 (≈ 4.16 µM) | > 64 | 33 | – | –
4 | CO/N=C(/C)c1cc(N(C)C)c2c(c1O)C(=O)C1=C(O)[C@]3(O)C(=O)C(C(N)=O)=C(O)C[C@@H]3C[C@@H]1C2 [AD] | 2 (≈ 4.12 µM) | > 64 | 30 | – | –
5 | CN(C)c1cc(-c2cccnc2)c(O)c2c1C[C@H]1C[C@H]3CC(O)=C(C(N)=O)C(=O)[C@@]3(O)C(O)=C1C2=O [AE] | 1 (≈ 2.03 µM) | > 64 | 80 | 65 | –
6 | CN(C)c1cc(-c2ccco2)c(O)c2c1C[C@H]1C[C@H]3CC(O)=C(C(N)=O)C(=O)[C@@]3(O)C(O)=C1C2=O [AG] | 0.25 (≈ 0.52 µM) | > 64 | 39 | – | –
7 | CN(C)c1cc(C(=O)NC(C)(C)C)c(O)c2c1C[C@H]1C[C@H]3CC(O)=C(C(N)=O)C(=O)[C@@]3(O)C(O)=C1C2=O [AH] | 1 (≈ 1.95 µM) | > 64 | 59 | – | –
8 | CN(C)c1cc(C(=O)Nc2ccccc2)c(O)c2c1C[C@H]1C[C@H]3CC(O)=C(C(N)=O)C(=O)[C@@]3(O)C(O)=C1C2=O [AI] | 0.12 (≈ 0.225 µM) | > 64 | 62 | – | –
9 | CN(C)c1cc(-c2nccs2)c(O)c2c1C[C@H]1C[C@H]3CC(O)=C(C(N)=O)C(=O)[C@@]3(O)C(O)=C1C2=O [AJ] | 0.25 (≈ 0.502 µM) | > 64 | 39 | – | –
10 | CN(C)c1cc(C(=O)OCCO)c(O)c2c1C[C@H]1C[C@H]3CC(O)=C(C(N)=O)C(=O)[C@@]3(O)C(O)=C1C2=O [AK] | > 64 | > 64 | 24 | – | –
11 | CCC(=O)c1cc(N(C)C)c2c(c1O)C(=O)C1=C(O)[C@]3(O)C(=O)C(C(N)=O)=C(O)C[C@@H]3C[C@@H]1C2 [AL] | 1 (≈ 2.13 µM) | > 64 | 62 | 31 | –
12 | Cc1cc(N(C)C)c2c(c1O)C(=O)C1=C(O)[C@]3(O)C(=O)C(C(N)=O)=C(O)C[C@@H]3C[C@@H]1C2 [AM] | 2 (≈ 4.67 µM) | > 64 | 73 | 66 | 36
13 | CN(C)c1cc(-c2ccccc2)c(O)c2c1C[C@H]1C[C@H]3CC(O)=C(C(N)=O)C(=O)[C@@]3(O)C(O)=C1C2=O [AN] | 1 (≈ 2.04 µM) | > 64 | 65 | 49 | –
14 | COCCOC(=O)c1cc(N(C)C)c2c(c1O)C(=O)C1=C(O)[C@]3(O)C(=O)C(C(N)=O)=C(O)C[C@@H]3C[C@@H]1C2 [AO] | 16 (≈ 31 µM) | > 64 | 52 | – | –
15 | CN(C)c1cc(C2=CCCCO2)c(O)c2c1C[C@H]1C[C@H]3CC(O)=C(C(N)=O)C(=O)[C@@]3(O)C(O)=C1C2=O [AP] | 4 (≈ 8.06 µM) | > 64 | 63 | – | –
16 | CC(C)c1noc(-c2cc(N(C)C)c3c(c2O)C(=O)C2=C(O)[C@]4(O)C(=O)C(C(N)=O)=C(O)C[C@@H]4C[C@@H]2C3)n1 [AR] | 0.5 (≈ 0.953 µM) | > 64 | 64 | – | –

Row | Structure (SMILES) | MIC (S. aureus RN450) [µg/mL] | MIC (E. coli 25922) [µg/mL] | inhibition in vivo at 25 mg/kg [1] [%] | inhibition in vivo at 12 mg/kg [1] [%] | inhibition in vivo at 6 mg/kg ([1]; Dose 6 mg/kg) [%]
17 | CN(C)c1cc(-c2ccnn2C)c(O)c2c1C[C@H]1C[C@H]3CC(O)=C(C(N)=O)C(=O)[C@@]3(O)C(O)=C1C2=O [AS] | 1 (≈ 2.02 µM) | > 64 | 56 | 30 | –
18 | CC(C)c1cc(N(C)C)c2c(c1O)C(=O)C1=C(O)[C@]3(O)C(=O)C(C(N)=O)=C(O)C[C@@H]3C[C@@H]1C2 [AU] | 1 (≈ 2.19 µM) | > 64 | 51 | – | –
19 | CN(C)c1cc(CC(C)(C)C)c(O)c2c1C[C@H]1C[C@H]3CC(O)=C(C(N)=O)C(=O)[C@@]3(O)C(O)=C1C2=O [AW] | 0.5 (≈ 1.03 µM) | > 64 | 39 | – | –
20 | CN(C)c1cc(C(=O)CC(C)(C)C)c(O)c2c1C[C@H]1C[C@H]3CC(O)=C(C(N)=O)C(=O)[C@@]3(O)C(O)=C1C2=O [AX] | 0.5 (≈ 0.975 µM) | > 64 | 51 | – | –
21 | Cc1ccc(N(C)C)c2c1C(=O)C1=C(O)[C@]3(O)C(=O)C(C(N)=O)=C(O)C[C@@H]3C[C@@H]1C2 [AY] | 8 (≈ 19.4 µM) | > 64 | 38 | – | –
22 | CN(C)c1cc(C(=O)c2ccccc2)c(O)c2c1C[C@H]1C[C@H]3CC(O)=C(C(N)=O)C(=O)[C@@]3(O)C(O)=C1C2=O [AZ] | 1 (≈ 1.93 µM) | > 64 | 36 | – | –
23 | Cc1ccc(O)c2c1C[C@H]1C[C@H]3CC(O)=C(C(N)=O)C(=O)[C@@]3(O)C(O)=C1C2=O [BA] | 0.25 (≈ 0.649 µM) | 64 (≈ 166 µM) | 34 | – | –
24 | NC(=O)C1=C(O)C[C@@H]2C[C@@H]3Cc4c(-c5ncco5)ccc(O)c4C(=O)C3=C(O)[C@]2(O)C1=O [BB] | 8 (≈ 18.2 µM) | > 64 | 47 | – | –
25 | CC(=O)c1ccc(O)c2c1C[C@H]1C[C@H]3CC(O)=C(C(N)=O)C(=O)[C@@]3(O)C(O)=C1C2=O [BC] | 4 (≈ 9.68 µM) | > 64 | 72 | – | –
26 | CN(C)c1cc(C(F)(F)F)c(O)c2c1C[C@H]1C[C@H]3CC(O)=C(C(N)=O)C(=O)[C@@]3(O)C(O)=C1C2=O [BD] | 0.5 (≈ 1.04 µM) | > 64 | 44 | – | –
27 | CN(C)[C@@H]1C(O)=C(C(N)=O)C(=O)[C@@]2(O)C(O)=C3C(=O)c4c(O)ccc(-c5ccc6c(c5)OCO6)c4C[C@H]3C[C@@H]12 [B] | 0.13 (≈ 0.243 µM) | 64 (≈ 120 µM) | 23 | – | –
28 | CC(=O)c1ccc(O)c2c1C[C@H]1C[C@H]3[C@H](N(C)C)C(O)=C(C(N)=O)C(=O)[C@@]3(O)C(O)=C1C2=O [C] | 0.06 (≈ 0.131 µM) | 0.13 (≈ 0.285 µM) | 62 | 62 | –
29 | COc1cc(-c2ccc(O)c3c2C[C@H]2C[C@H]4[C@H](N(C)C)C(O)=C(C(N)=O)C(=O)[C@@]4(O)C(O)=C2C3=O)cc(OC)c1OC [Compound D] | – | – | 27 | – | –
30 | CN(C)c1ccc(O)c2c1C[C@H]1C[C@H]3CC(O)=C(C(N)=O)C(=O)[C@@]3(O)C(O)=C1C2=O [F] | – | – | 55 | – | –
31 | C=CCc1cc(N(C)C)c2c(c1O)C(=O)C1=C(O)[C@]3(O)C(=O)C(C(N)=O)=C(O)[C@@H](N(C)C)[C@@H]3C[C@@H]1C2 [I] | – | – | 29 | – | –
